In the NIST ThermoML archive (doi:10.1021/je5000132):
Numbers after ± are expanded uncertainties.

Assay: xn = mol fraction of the nth substance listed
Conditions: for speed of sound: 100 kPa, Pulse-echo method; for speed of sound / viscosity / mass density: Liquid; for viscosity / mass density: 101 kPa; for viscosity: Concentric cylinders viscometry; for mass density: Vibrating tube method; for surface tension liquid-gas: 294.7 K, Drop volume

CC(CC(C)(C)C)CC(C)(C)C [2,2,4,6,6-pentamethylheptane] + CCCCCCCCCCCC
Conditions	mass density [kg/m3]	speed of sound [m/s]	viscosity [mPa·s]
293.15 K, x1 = 0.1	748.467 ± 0.56	1288.5 ± 1.4	1.45 ± 0.019
293.15 K, x1 = 0.2	748.123 ± 0.57	1279.3 ± 1.5	1.42 ± 0.02
293.15 K, x1 = 0.2885	747.857 ± 0.58	1271.4 ± 1.5	1.4 ± 0.02
293.15 K, x1 = 0.3998	747.387 ± 0.59	1261.4 ± 1.6	1.37 ± 0.02
293.15 K, x1 = 0.4999	747.034 ± 0.61	1251.6 ± 1.7	1.35 ± 0.02
293.15 K, x1 = 0.6501	746.519 ± 0.64	1238 ± 1.9	1.33 ± 0.021
293.15 K, x1 = 0.7998	745.947 ± 0.67	1223.2 ± 2	1.31 ± 0.021
293.15 K, x1 = 1	–	1203.6 ± 2.2	–
303.15 K, x1 = 0.1	741.234 ± 0.56	1250.3 ± 1.4	1.22 ± 0.019
303.15 K, x1 = 0.2	740.898 ± 0.57	1241.1 ± 1.5	1.2 ± 0.019
303.15 K, x1 = 0.2885	740.654 ± 0.58	1233.2 ± 1.5	1.18 ± 0.019
303.15 K, x1 = 0.3998	740.15 ± 0.59	1223.2 ± 1.6	1.16 ± 0.019
303.15 K, x1 = 0.4999	739.835 ± 0.61	1213.4 ± 1.7	1.15 ± 0.019
303.15 K, x1 = 0.6501	739.313 ± 0.64	1199.6 ± 1.8	1.13 ± 0.02
303.15 K, x1 = 0.7998	738.715 ± 0.67	1184.7 ± 2	1.12 ± 0.02
303.15 K, x1 = 1	–	1164.8 ± 2.2	–
313.15 K, x1 = 0.1	733.97 ± 0.56	1212.5 ± 1.4	1.03 ± 0.018
313.15 K, x1 = 0.2	733.64 ± 0.56	1203.3 ± 1.5	1.02 ± 0.018
313.15 K, x1 = 0.2885	733.415 ± 0.58	1195.5 ± 1.5	1 ± 0.018
313.15 K, x1 = 0.3998	732.953 ± 0.59	1185.4 ± 1.6	0.988 ± 0.019
313.15 K, x1 = 0.4999	732.598 ± 0.61	1175.7 ± 1.7	0.977 ± 0.019
313.15 K, x1 = 0.6501	732.066 ± 0.64	1161.8 ± 1.8	0.962 ± 0.019
313.15 K, x1 = 0.7998	731.445 ± 0.67	1146.8 ± 2	0.952 ± 0.019
313.15 K, x1 = 1	–	1126.7 ± 2.2	–
323.15 K, x1 = 0.1	–	1175.3 ± 1.4	0.898 ± 0.018
323.15 K, x1 = 0.2	–	1166.2 ± 1.5	0.885 ± 0.018
323.15 K, x1 = 0.2885	–	1158.3 ± 1.5	0.876 ± 0.018
323.15 K, x1 = 0.3998	–	1148.3 ± 1.6	0.863 ± 0.018
323.15 K, x1 = 0.4999	–	1138.5 ± 1.7	0.856 ± 0.018
323.15 K, x1 = 0.6501	–	1124.6 ± 1.8	–
323.15 K, x1 = 0.7998	–	1109.5 ± 2	–
323.15 K, x1 = 1	–	1089.3 ± 2.2	–

Conditions	surface tension liquid-gas [mN/m]
x1 = 0.1	24.3 ± 0.3
x1 = 0.2	24.1 ± 0.3
x1 = 0.2885	23.7 ± 0.3
x1 = 0.3998	23.3 ± 0.3
x1 = 0.4999	23.2 ± 0.3
x1 = 0.6501	22.7 ± 0.3
x1 = 0.7998	22.3 ± 0.3
x1 = 1	21.8 ± 0.3
